Data taken from US8129527B2, “Analogs of dehydrophenylahistins and their therapeutic use” (Nereus Pharmacuticals, Inc., priority 2006, dated 2012).

tested on: HT-29 human colorectal carcinoma cells; test: Cell growth inhibition assay, resazurin (Table 3.2); assay type: cell-based; settings: HT-29, read-out: EC50 (M) Mean
Protocol: The cytotoxic effects of various derivatives of dehydrophenylahistin against HT-29 human colorectal carcinoma cells were determined.
HT-29 cells (ATCC; HTB-38) were maintained in ATCC recommended culture media and cultured in an incubator at 37° C. in 5% CO2 and 95% humidified air.
For cell growth inhibition assays, HT-29 cells were seeded at 5×10^3 cells/well in 90 μl complete media into a Corning 3904 black-walled, clear-bottom tissue culture plates and the plates were incubated overnight to allow cells to establish and enter log phase growth. 20 mM stock solutions of compounds were prepared in 100% DMSO and stored at −80° C. 10× concentrated serial dilutions of the compounds were prepared in culture medium for final concentrations ranging from 20 μM to […]. Ten μl volumes of the 10× serial dilutions were added to the test wells in triplicate and the plates returned to the incubator for 48 hours. The final concentration of DMSO was 0.25% in all samples.
Following 48 hours of drug exposure, 10 μl of 0.2 mg/ml resazurin (obtained from Sigma-Aldrich Chemical Co.) in Mg^2+, Ca^2+ free phosphate buffered saline was added to each well and the plates were returned to the incubator for 3-4 hours. […] Resazurin dye in medium without cells was used to determine the background, which was subtracted from the data for all experimental wells.

Going from `CC(C)(C)c1ocnc1/C=c1\[nH]c(=O)/c(=C/c2cccc3ccccc23)[nH]c1=O` [Compound 2464, tBu-Oxadelta-PLH-1-naphth] to `CC(C)(C)c1ocnc1/C=c1\[nH]c(=O)/c(=C/c2ccnc3ccccc23)[nH]c1=O` [Compound 2500, tBu-oxadelta-PLH-4-quinoline], the EC50 rises from 5.37e-08 M to 3.99e-07 M (7.4-fold). The first is the more potent here.

`Cc1cccc(/C=c2\[nH]c(=O)/c(=C/c3ncoc3C(C)(C)C)[nH]c2=O)c1` [Compound 2466, tBu-Oxadelta-PLH-3-CH3] and `CC(C)(C)c1ocnc1/C=c1\[nH]c(=O)/c(=C/c2cccc(Cl)c2)[nH]c1=O` [Compound 2467, tBu-Oxadelta-PLH-3-Cl] are within 1.5-fold of each other in EC50: 5.55e-08 M for the first, 5.41e-08 M for the second.

Going from `CC(C)(C)c1ocnc1/C=c1\[nH]c(=O)/c(=C/c2cccc(Cl)c2Cl)[nH]c1=O` [Compound 2468, tBu-Oxadelta-PLH-2,3-diCl] to `Cc1cccc(/C=c2\[nH]c(=O)/c(=C/c3ncoc3C(C)(C)C)[nH]c2=O)c1C` [Compound 2486, tBu-Oxadelta-PLH-2,3-diMe], the EC50 rises from 7.92e-08 M to 1.43e-07 M (1.8-fold).

Going from `Cc1ccccc1/C=c1\[nH]c(=O)/c(=C/c2ncoc2C(C)(C)C)[nH]c1=O` [Compound 2472, tBu-Oxadelta-PLH-o-Me] to `CC(C)(C)c1ocnc1/C=c1\[nH]c(=O)/c(=C/c2ccccn2)[nH]c1=O` [Compound 2474, tBu-Oxadelta-PLH-2-Py], the EC50 rises from 5.46e-08 M to over 6.32e-07 M. The first is the more potent here.

First: CC(C)(C)c1ocnc1/C=c1\[nH]c(=O)/c(=C/c2cccc([N+](=O)[O-])c2)[nH]c1=O [Compound 2479, tBu-Oxadelta-PLH-m-NO2]
Second: C=Cc1cccc(/C=c2\[nH]c(=O)/c(=C/c3ncoc3C(C)(C)C)[nH]c2=O)c1 [Compound 2482, tBu-Oxadelta-PLH-m-vinyl]
The EC50 of the first is 4.1-fold higher: 1.08e-07 M for the first, 2.65e-08 M for the second.

`CC(C)(C)c1ocnc1/C=c1\[nH]c(=O)/c(=C/c2ccc(Cl)o2)[nH]c1=O` [Compound 2481, tBu-Oxadelta-PLH-5-Cl-2-furyl] and `CC(C)(C)c1ocnc1/C=c1\[nH]c(=O)/c(=C/c2ccc(Br)o2)[nH]c1=O` [Compound 2483, tBu-Oxadelta-PLH-5-Br-2-furyl] are within 1.5-fold of each other in EC50: 2.56e-07 M for the first, 2.48e-07 M for the second.

Compared with `CC(C)(C)c1ocnc1/C=c1\[nH]c(=O)/c(=C/c2cccs2)[nH]c1=O` [Compound 2484, tBu-Oxadelta-PLH-2-thienyl], `CC(C)(C)c1ocnc1/C=c1\[nH]c(=O)/c(=C/c2cc3ccccc3s2)[nH]c1=O` [Compound 2510, tBu-oxadelta-PLH-2-benzothiophen] is higher in EC50: 1.05e-07 M for the first, over 2e-05 M for the second.

First: CC(C)(C)c1ocnc1/C=c1\[nH]c(=O)/c(=C/c2cccc(C(F)(F)F)c2)[nH]c1=O [Compound 2488, tBu-Oxadelta-PLH-m-CF3]
Second: CC(C)(C)c1ocnc1/C=c1\[nH]c(=O)/c(=C/c2ccc3nsnc3c2)[nH]c1=O [Compound 2509, tBu-oxadelta-PLH-2,1,3-benzothiadiazole]
The EC50 of the first is 1.6-fold lower: 2.49e-07 M for the first, 4.04e-07 M for the second.

First: CC(C)(C)c1ocnc1/C=c1\[nH]c(=O)/c(=C/c2cccc(Oc3ccccc3)c2)[nH]c1=O [Compound 2501, tBu-oxadelta-PLH-3-phenoxy]
Second: CC(C)(C)c1ocnc1/C=c1\[nH]c(=O)/c(=C/c2cccc(C(=O)c3ccccc3)c2)[nH]c1=O [Compound 2512, tBu-oxadelta-PLH-3-benzoyl]
The EC50 of the first is 6.2-fold higher: 2.39e-08 M for the first, 3.86e-09 M for the second.

`Cc1oc(-c2ccccc2)cc1/C=c1\[nH]c(=O)/c(=C/c2ncoc2C(C)(C)C)[nH]c1=O` [Compound 2505, tBu-oxadelta-PLH-2-Me-5-Ph-3-furyl] and `CC(C)(C)c1ocnc1/C=c1\[nH]c(=O)/c(=C/c2cc3ccccc3n2S(=O)(=O)c2ccccc2)[nH]c1=O` [Compound 2508, tBu-oxadelta-PLH-1-(Ph-sulfo)-2-indole] cannot be ordered by EC50: over 6.32e-06 M for the first, over 6.32e-06 M for the second.

For `CC(C)(C)c1ocnc1/C=c1\[nH]c(=O)/c(=C/c2cc(F)cc3c2OCOC3)[nH]c1=O` [Compound 2511, tBu-oxadelta-PLH-7-fluoro-2,4-benzodioxine], the EC50 was 2.39e-08 M.

same assay, conditions: Table 3.2, HT-29 cells, read-out: EC50 (M) Mean

Compared with `CC(C)(C)c1ocnc1/C=c1\[nH]c(=O)/c(=C/c2ccccc2Cl)[nH]c1=O` [Compound 2465, tBu-Oxadelta-PLH-2-Cl], `CC(C)(C)c1ocnc1/C=c1\[nH]c(=O)/c(=C/c2ccccc2F)[nH]c1=O` [Compound 2475, tBu-Oxadelta-PLH-2-F] is 8.6-fold higher in EC50: 5.4e-08 M for the first, 4.66e-07 M for the second. The first is the more potent here.

Compared with `COc1cc(/C=c2\[nH]c(=O)/c(=C/c3ncoc3C(C)(C)C)[nH]c2=O)cc(OC)c1` [Compound 2469, tBu-Oxadelta-PLH-3,5-diOMe], `CC(C)(C)c1ocnc1/C=c1\[nH]c(=O)/c(=C/c2cc(Cl)cc(Cl)c2)[nH]c1=O` [Compound 2470, tBu-Oxadelta-PLH-3,5-diCl] is 3.2-fold higher in EC50: 8.63e-08 M for the first, 2.78e-07 M for the second.

First: CCOc1cccc(/C=c2\[nH]c(=O)/c(=C/c3ncoc3C(C)(C)C)[nH]c2=O)c1 [Compound 2471, tBu-Oxadelta-PLH-m-OEt]
Second: CC(C)(C)c1ocnc1/C=c1\[nH]c(=O)/c(=C/c2cccc(Br)c2)[nH]c1=O [Compound 2473, tBu-Oxadelta-PLH-3-Br]
The EC50 of the first is 1.8-fold higher: 1.01e-07 M for the first, 5.59e-08 M for the second.

Going from `CC(C)(C)c1ocnc1/C=c1\[nH]c(=O)/c(=C/c2ccccc2[N+](=O)[O-])[nH]c1=O` [Compound 2476, tBu-Oxadelta-PLH-2-NO2] to `COc1ccccc1/C=c1\[nH]c(=O)/c(=C/c2ncoc2C(C)(C)C)[nH]c1=O` [Compound 2485, tBu-Oxadelta-PLH-2-OMe], the EC50 rises from 1.24e-07 M to 2.18e-07 M (1.8-fold).

First: CC(C)(C)c1ocnc1/C=c1\[nH]c(=O)/c(=C/c2cccc(OC(F)(F)F)c2)[nH]c1=O [Compound 2477, tBu-Oxadelta-PLH-m-OCF3]
Second: CC(C)(C)c1ocnc1/C=c1\[nH]c(=O)/c(=C\c2ccccc2)[nH]c1=O [Compound 2489, (E)-tBu-delta-PLH]
The EC50 of the first is 2.4-fold lower: 4.86e-08 M for the first, 1.16e-07 M for the second. The first is the more potent here.

`CC(C)(C)c1ocnc1/C=c1\[nH]c(=O)/c(=C/c2ccoc2)[nH]c1=O` [Compound 2478, tBu-Oxadelta-PLH-3-furanyl] and `CC(C)(C)c1ocnc1/C=c1\[nH]c(=O)/c(=C/c2ccsc2)[nH]c1=O` [Compound 2487, tBu-Oxadelta-PLH-3-thienyl] are within 1.5-fold of each other in EC50: 5.37e-08 M for the first, 7.93e-08 M for the second.

Compared with `Cc1ccsc1/C=c1\[nH]c(=O)/c(=C/c2ncoc2C(C)(C)C)[nH]c1=O` [Compound 2480, tBu-Oxadelta-PLH-3-Me-2-thienyl], `CC(C)(C)c1ocnc1/C=c1\[nH]c(=O)/c(=C/c2ccc(-c3cccs3)s2)[nH]c1=O` [Compound 2502, tBu-oxadelta-PLH-2,2′-bitio] is 12-fold higher in EC50: 1.61e-07 M for the first, 1.88e-06 M for the second.

Compared with `CC(C)(C)c1ocnc1/C=c1\[nH]c(=O)/c(=C/CCc2ccccc2)[nH]c1=O` [Compound 2496, tBu-oxadelta-PLH-Ph-pr], `COc1ccc2ccccc2c1/C=c1\[nH]c(=O)/c(=C/c2ncoc2C(C)(C)C)[nH]c1=O` [Compound 2498, tBu-oxadelta-PLH-2-OMe-1-naphth] is 1.8-fold higher in EC50: 9.48e-07 M for the first, 1.67e-06 M for the second. The first is the more potent here.

Going from `CCOc1ccc2ccccc2c1/C=c1\[nH]c(=O)/c(=C/c2ncoc2C(C)(C)C)[nH]c1=O` [Compound 2497, tBu-oxadelta-PLH-2-OEt-1-naphth] to `CC(C)(C)c1ocnc1/C=c1\[nH]c(=O)/c(=C/c2c3ccccc3cc3ccccc23)[nH]c1=O` [Compound 2499, tBu-oxadelta-PLH-9-anth], the EC50 rises from 5.23e-06 M to over 6.32e-06 M. The first is the more potent here.

Compared with `CC(C)(C)c1ocnc1/C=c1\[nH]c(=O)/c(=C/c2cn(S(=O)(=O)c3ccccc3)c3ccccc23)[nH]c1=O` [Compound 2507, tBu-oxadelta-PLH-1-(Ph-sulfo)-3-indole], `CC(C)(C)c1ocnc1/C=C1\NC(=O)[C@H](Cc2ccccc2)NC1=O` [Compound 2513, tBu-oxa-PLH] is lower in EC50: over 6.32e-06 M for the first, 9.24e-07 M for the second.

tested on: not given; test: not given; settings: not given

Compared with `CC(C)(C)c1ocnc1/C=c1\[nH]c(=O)/c(=C/c2cccc3ccccc23)[nH]c1=O`, `CC(C)(C)c1ocnc1/C=c1\[nH]c(=O)/c(=C/c2ccnc3ccccc23)[nH]c1=O` is lower in melting point: 168 to 170 °C for the first, 106 to 108 °C for the second.

First: Cc1cccc(/C=c2\[nH]c(=O)/c(=C/c3ncoc3C(C)(C)C)[nH]c2=O)c1
Second: CC(C)(C)c1ocnc1/C=c1\[nH]c(=O)/c(=C/c2cccc(Cl)c2)[nH]c1=O
The melting point of the first is lower: 151 to 153 °C for the first, 171 to 173 °C for the second.

First: CC(C)(C)c1ocnc1/C=c1\[nH]c(=O)/c(=C/c2cccc(Cl)c2Cl)[nH]c1=O
Second: Cc1cccc(/C=c2\[nH]c(=O)/c(=C/c3ncoc3C(C)(C)C)[nH]c2=O)c1C
The melting point of the first is higher: 198 to 200 °C for the first, 167 to 169 °C for the second.

First: CC(C)(C)c1ocnc1/C=c1\[nH]c(=O)/c(=C/c2ccccn2)[nH]c1=O
Second: CC(C)(C)c1ocnc1/C=c1\[nH]c(=O)/c(=C/c2cc3ccccc3s2)[nH]c1=O
The melting point of the first is higher: 230 to 232 °C for the first, 225 to 227 °C for the second.

First: CC(C)(C)c1ocnc1/C=c1\[nH]c(=O)/c(=C/c2cccc([N+](=O)[O-])c2)[nH]c1=O
Second: C=Cc1cccc(/C=c2\[nH]c(=O)/c(=C/c3ncoc3C(C)(C)C)[nH]c2=O)c1
The melting point of the first is higher: 225 to 227 °C for the first, 150 to 152 °C for the second.

First: CC(C)(C)c1ocnc1/C=c1\[nH]c(=O)/c(=C/c2ccc(Cl)o2)[nH]c1=O
Second: CC(C)(C)c1ocnc1/C=c1\[nH]c(=O)/c(=C/c2cccc(C(F)(F)F)c2)[nH]c1=O
The melting point of the first is lower: 214 to 216 °C for the first, 243 to 245 °C for the second.

First: CC(C)(C)c1ocnc1/C=c1\[nH]c(=O)/c(=C/c2cccc(Oc3ccccc3)c2)[nH]c1=O
Second: CC(C)(C)c1ocnc1/C=c1\[nH]c(=O)/c(=C/c2cc3ccccc3n2S(=O)(=O)c2ccccc2)[nH]c1=O
The melting point of the first is higher: 171 to 173 °C for the first, 145 to 147 °C for the second.

For `CC(C)(C)c1ocnc1/C=c1\[nH]c(=O)/c(=C/c2ccc3nsnc3c2)[nH]c1=O`, the melting point was 234 to 236 °C.
